In patent US20180021277A1, “ANTI-VIRULENCE COMPOSITIONS AND METHODS” (priority 2012, published 2018):
Converted amounts (≈) assume the structure as drawn.

Assays:
[1] = tested on: Streptococcus pyogenes; assay type: cell-based
[2] = tested on: MRSA USA300; assay: microbe, parasite or virus in culture; assay type: cell-based, Staphylococcus aureus; conditions: for MIC: Staphylococcus aureus, read-out: minimum inhibitory concentration (MIC), With F19 (1 μg/mL)
[3] = tested on: MRSA USA300; assay type: in vivo, mice; conditions: for tissue burden of the wound, average log CFUs ± standard deviation: topical twice a day for seven days, cephalothin 30 mg/kg, F19 20 mg/kg, vancomycin 30 mg/kg; for tissue burden of the wound, average log CFUs ± standard deviation / bacterial burden of the wound vs untreated control: day 8; for improvement of wound healing compared to untreated control: 20 mg/kg on the wound once a day for seven days, wound area day 8; for bacterial burden of the wound vs untreated control: 20 mg/kg once a day for seven days
[4] = tested on: MRSE Q-15; assay type: cell-based, Staphylococcus epidermidis
[5] = tested on: MRSA USA300; assay: Murine MRSA bacteremia/sepsis model
[6] = tested on: Bacillus anthracis Ames strain; assay type: cell-based
[7] = molecular target: AgrA-P3 complex (Staphylococcus aureus, UniProt P0A0I7); assay: Electrophoretic mobility shift assay, AgrA with P3 promoter DNA; conditions: 1 nM P3 DNA, 2 μM AgrA
Sequence of AgrA-P3 complex (P0A0I7 whole entry, one chain of several): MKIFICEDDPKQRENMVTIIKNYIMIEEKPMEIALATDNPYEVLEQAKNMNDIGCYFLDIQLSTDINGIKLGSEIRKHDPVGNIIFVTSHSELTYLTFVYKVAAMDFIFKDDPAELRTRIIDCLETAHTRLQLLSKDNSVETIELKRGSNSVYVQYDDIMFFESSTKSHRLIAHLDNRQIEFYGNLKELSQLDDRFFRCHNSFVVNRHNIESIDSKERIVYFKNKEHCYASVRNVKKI

[8] = Survival of insect larvae given compound in the absence of bacteria; assay type: in vivo, Galleria Mellonella; conditions: after 84 h

In the case of `CCOc1ccc2ccccc2c1C(=O)N[C@@H]1C(=O)N2[C@@H]1SC(C)(C)[C@@H]2C(=O)O` [Nafcillin], the “minimum inhibitory concentration (MIC), antibiotic Alone” value ([1]; alone) is reported as 25, the “minimum inhibitory concentration (MIC), With F19 (1 μg/mL)” value ([1]; with F19 1 μg/mL) is reported as 10 and the “minimum inhibitory concentration (MIC), antibiotic Alone” value ([2]; MRSA USA300) is reported as 60 µg/mL (≈ 145 µM). The MIC [2] was 1 µg/mL (≈ 2.41 µM).

For `CC(=O)OCC1=C(C(=O)O)N2C(=O)[C@@H](NC(=O)Cc3cccs3)[C@H]2SC1` [Cephalothin, cephalothin], the “minimum inhibitory concentration (MIC), antibiotic Alone” value ([2]; MRSA USA300) was 58 µg/mL (≈ 146 µM), the MIC [2] was 2 µg/mL (≈ 5.04 µM) and the “tissue burden of the wound, average log CFUs ± standard deviation” value [3] was 7.54±0.4 log CFU. The “minimum inhibitory concentration (MIC), antibiotic Alone” value [4] was 64, the “minimum inhibitory concentration (MIC), With F19 (1 μg/mL)” value [4] was 3 and the “bacterial burden in blood compared to F19-treated animals” value ([5]; 30 mg/kg IP twice daily) was “approximately the same bacterial burden levels”.

For `C[C@H]1[C@H](NC(=O)/C(=N\OC(C)(C)C(=O)O)c2csc(N)n2)C(=O)N1S(=O)(=O)O` [Aztreonam], the “minimum inhibitory concentration (MIC), antibiotic Alone” value [6] was 256 and the “minimum inhibitory concentration (MIC), With F19 (10 μg/mL)” value [6] was <0.1.

For `CC(C)(O/N=C(\C(=O)N[C@@H]1C(=O)N2C(C(=O)[O-])=C(C[n+]3ccccc3)CS[C@H]12)c1csc(N)n1)C(=O)O` [Cefazidime], the “minimum inhibitory concentration (MIC), antibiotic Alone” value [6] was 32 and the “minimum inhibitory concentration (MIC), With F19 (10 μg/mL)” value [6] was <0.1.

In the case of `CN[C@H](CC(C)C)C(=O)N[C@H]1C(=O)N[C@@H](CC(N)=O)C(=O)N[C@H]2C(=O)N[C@H]3C(=O)N[C@H](C(=O)N[C@H](C(=O)O)c4cc(O)cc(O)c4-c4cc3ccc4O)[C@H](O)c3ccc(c(Cl)c3)Oc3cc2cc(c3O[C@@H]2O[C@H](CO)[C@@H](O)[C@H](O)[C@H]2O[C@H]2C[C@](C)(N)[C@H](O)[C@H](C)O2)Oc2ccc(cc2Cl)[C@H]1O` [Vancomycin, vancomycin], the “tissue burden of the wound, average log CFUs ± standard deviation” value [3] is reported as 6.96±0.3 log CFU, the “bacterial load in blood compared to the F19-cephalothin treatment” value ([5]; 30 mg/kg IP twice daily) is reported as “almost two orders of magnitude lower” and the “surviving mice (of ten per group)” value ([5]; 30 mg/kg IP twice daily for 7 days, lethal dose 1.6×10^10 CFUs) is reported as “all survived”. For the same compound, the “mean bacterial load in blood compared to vehicle-treated animals” value ([5]; 30 mg/kg IP twice daily, day 6) was “four orders of magnitude lower”.

In the case of `CCCCCCc1cc(C(=O)COc2ccc(F)cc2F)c(O)cc1O` [4f-12], the “inhibition of formation of the AgrA-promoter P3 complex (EMSA)” value (“inhibition” for short) [7] is reported as “inhibit binding of AgrA to its cognate DNA”, the “inhibition” value ([7]; listed as F12) is reported as “inhibit the formation of the AgrA-promoter P3 complex” and the “improvement of wound healing compared to untreated control” value [3] is reported as 79.4%. The “bacterial burden of the wound vs untreated control” value [3] was “no significant difference in the bacterial burden” and the “survival of larvae in the absence of bacteria” value [8] was 80%.

With `CCCCCCc1cc(C(=O)COc2cccc(F)c2)c(O)cc1O` [4f-1] the “inhibition” value ([7]; listed as F1) was “inhibit the formation of the AgrA-promoter P3 complex”, the “improvement of wound healing compared to untreated control” value [3] was 46.6% and the “bacterial burden of the wound vs untreated control” value [3] was “no significant difference in the bacterial burden”.

With Penicillin the “minimum inhibitory concentration (MIC), antibiotic Alone” value ([2]; MRSA USA300) was 135 µg/mL, the “minimum inhibitory concentration (MIC), With F19 (1 μg/mL)” value ([2]; MRSA USA300, with F19 1 μg/mL) was 18 µg/mL and the “minimum inhibitory concentration (MIC), antibiotic Alone” value [4] was 174. The “minimum inhibitory concentration (MIC), With F19 (1 μg/mL)” value [4] was 34.
